In ChEMBL document CHEMBL2040718, “Synthesis of friedelan triterpenoid analogs with DNA topoisomerase IIα inhibitory activity and their molecular docking studies” (Eur J Med Chem, 2012):
The source made the active and inactive calls. No cut-off for these calls is given here.

Legend:
[1] = target: DNA topoisomerase 2-alpha (Homo sapiens) (UniProt P11388); test: Inhibition of human topoisomerase 2alpha-mediated relaxation of supercoiled pBR322 plasmid DNA after 15 mins using ethidium bromide staining by agarose-gel electrophoresis
DNA topoisomerase 2-alpha (Homo sapiens), sequence (P11388 whole entry): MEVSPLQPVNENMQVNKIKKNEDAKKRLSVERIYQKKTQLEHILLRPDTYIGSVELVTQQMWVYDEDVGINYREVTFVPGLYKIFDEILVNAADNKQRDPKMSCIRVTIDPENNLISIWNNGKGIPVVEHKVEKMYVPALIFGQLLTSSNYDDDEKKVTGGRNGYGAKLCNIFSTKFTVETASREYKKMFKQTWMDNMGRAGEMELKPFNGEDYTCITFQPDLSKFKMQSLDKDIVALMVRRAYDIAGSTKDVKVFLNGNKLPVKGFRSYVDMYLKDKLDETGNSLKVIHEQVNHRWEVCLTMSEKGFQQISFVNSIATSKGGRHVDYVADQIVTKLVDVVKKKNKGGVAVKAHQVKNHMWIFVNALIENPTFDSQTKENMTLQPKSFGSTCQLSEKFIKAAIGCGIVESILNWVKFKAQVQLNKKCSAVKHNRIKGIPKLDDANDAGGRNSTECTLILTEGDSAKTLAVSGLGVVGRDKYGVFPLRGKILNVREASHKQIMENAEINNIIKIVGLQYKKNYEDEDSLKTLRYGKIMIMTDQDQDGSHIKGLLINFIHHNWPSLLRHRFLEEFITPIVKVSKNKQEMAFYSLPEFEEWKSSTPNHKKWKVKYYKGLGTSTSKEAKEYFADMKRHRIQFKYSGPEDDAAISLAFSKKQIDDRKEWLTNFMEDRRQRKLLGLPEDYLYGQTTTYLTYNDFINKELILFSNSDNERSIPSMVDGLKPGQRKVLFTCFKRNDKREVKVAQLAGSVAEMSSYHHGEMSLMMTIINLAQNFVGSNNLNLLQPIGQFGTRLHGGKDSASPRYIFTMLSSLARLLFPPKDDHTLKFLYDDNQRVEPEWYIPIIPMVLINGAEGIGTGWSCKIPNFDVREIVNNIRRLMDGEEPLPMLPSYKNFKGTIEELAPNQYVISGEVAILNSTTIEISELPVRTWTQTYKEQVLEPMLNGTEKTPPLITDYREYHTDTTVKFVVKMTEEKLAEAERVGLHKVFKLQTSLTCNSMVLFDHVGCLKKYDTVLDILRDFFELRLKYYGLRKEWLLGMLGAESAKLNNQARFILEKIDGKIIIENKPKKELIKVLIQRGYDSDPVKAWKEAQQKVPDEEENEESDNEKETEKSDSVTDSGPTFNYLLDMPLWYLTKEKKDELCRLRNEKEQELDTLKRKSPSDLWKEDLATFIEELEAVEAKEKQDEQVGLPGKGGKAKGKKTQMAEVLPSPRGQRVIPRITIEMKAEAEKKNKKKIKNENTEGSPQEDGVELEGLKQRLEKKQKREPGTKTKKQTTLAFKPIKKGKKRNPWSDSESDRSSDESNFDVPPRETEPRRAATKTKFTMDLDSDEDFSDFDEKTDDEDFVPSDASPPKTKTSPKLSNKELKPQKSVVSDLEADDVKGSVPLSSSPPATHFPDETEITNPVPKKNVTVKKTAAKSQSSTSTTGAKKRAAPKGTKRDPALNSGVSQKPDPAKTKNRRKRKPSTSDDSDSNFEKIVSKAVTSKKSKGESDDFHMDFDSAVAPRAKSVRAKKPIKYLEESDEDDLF

[2] = target: DNA topoisomerase 2-alpha (Homo sapiens) (UniProt P11388); test: Complete inhibition of human topoisomerase 2alpha-mediated relaxation of supercoiled pBR322 plasmid DNA at 100 uM after 15 mins using ethidium bromide staining by agarose-gel electrophoresis
[3] = target: DNA topoisomerase 2-alpha (Homo sapiens) (UniProt P11388); test: Complete inhibition of human topoisomerase 2alpha-mediated relaxation of supercoiled pBR322 plasmid DNA at 50 uM after 15 mins using ethidium bromide staining by agarose-gel electrophoresis
[4] = target: DNA topoisomerase 2-alpha (Homo sapiens) (UniProt P11388); test: Partial inhibition of human topoisomerase 2alpha-mediated relaxation of supercoiled pBR322 plasmid DNA at 25 uM after 15 mins using ethidium bromide staining by agarose-gel electrophoresis

Row | inhibition [1] | inhibition [2] | inhibition [3] | inhibition [4] | Structure (SMILES)
1 | Dose-dependent effect | Active | Active | Active | C[C@@H](C(=O)O)[C@@]1(C)CC[C@H]2[C@@](C)(CC[C@@]3(C)[C@@H]4CC(C)(C)CC[C@]4(C)CC[C@]23C)[C@@H]1CC(=O)O
2 | Dose-dependent effect | Active | Active | Active | CC(=O)[C@@]1(C)CC[C@H]2[C@@](C)(CC[C@@]3(C)[C@@H]4CC(C)(C)CC[C@]4(C)CC[C@]23C)[C@@H]1CC(=O)O
